Reference: patent US7101878B1 (Agouron Pharmaceuticals, Inc., priority 1998, dated 2006)

Tests used:
rat GnRH receptor = target: T1, rat GnRH receptor (Rattus norvegicus, UniProt P30969); test: Radioligand binding, 125I-GnRH-A, rat pituitary membranes; parameters: membranes were prepared from rat pituitary; from tissue; host or cells: rat pituitary; conditions: read-out: rGnRH IC50
T1 sequence (P30969 1-327): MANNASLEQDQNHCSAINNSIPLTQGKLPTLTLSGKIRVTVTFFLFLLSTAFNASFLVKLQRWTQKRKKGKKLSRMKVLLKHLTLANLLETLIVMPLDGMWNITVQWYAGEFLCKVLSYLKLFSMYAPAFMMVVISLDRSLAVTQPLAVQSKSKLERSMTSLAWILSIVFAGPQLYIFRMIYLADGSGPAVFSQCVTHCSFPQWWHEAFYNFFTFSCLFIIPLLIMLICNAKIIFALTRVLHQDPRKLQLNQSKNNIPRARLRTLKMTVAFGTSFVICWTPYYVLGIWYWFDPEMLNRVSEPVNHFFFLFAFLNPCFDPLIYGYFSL
Description: All compounds were diluted in 1% DMSO (final assay concentration) in binding assay buffer. […] Reactions were terminated by rapid filtration onto 96-well Packard GF/C filters soaked in 0.1% polyethyleneimine. Filters were washed three times with PBS buffer, dried and counted on a Packard Topcount by liquid scintillation counting.
Assay conditions were identical for assessing compound activities at other species. […] IC50 values for control peptides and test compounds were calculated utilizing GraphPad Prism™ software.
The reaction mixture was vortexed and incubated for 1 min at room temperature. After one min, the mixture was vortexed and allowed to incubate for an additional minute. 2 ml of 0.5 M acetic acid/1% BSA was added to the reaction tube and the mixture was added to a C18 Sep-Pak cartridge. The cartridge was washed with subsequent washes of 5 ml H2O and 5 ml 0.5M acetic acid and then eluted with 5×1 ml of 60% CH3CN/40% 0.5M acetic acid. The eluate was diluted with 3× volume of HPLC buffer A (0.1% TFA in H2O) and loaded onto a C18 column. […] The radioactive fractions (750 ed/fraction) are collected into clean polypropylene tubes containing 100 μl of 10% BSA. Fractions were assessed for biological activity by radioligand binding.

human GnRH receptor = target: T2, human GnRH receptor (Homo sapiens, UniProt P30968); test: Radioligand binding, 125I-GnRH-A displacement, membranes of HEK 293 cells with human GnRH receptor; conditions: read-out: hGnRH IC50
T2 construct: expressed in transfected cells; host or cells: HEK 293 (hGnRH-R/293, from Dr. Stuart Sealfon)
T2 sequence (P30968 1-328): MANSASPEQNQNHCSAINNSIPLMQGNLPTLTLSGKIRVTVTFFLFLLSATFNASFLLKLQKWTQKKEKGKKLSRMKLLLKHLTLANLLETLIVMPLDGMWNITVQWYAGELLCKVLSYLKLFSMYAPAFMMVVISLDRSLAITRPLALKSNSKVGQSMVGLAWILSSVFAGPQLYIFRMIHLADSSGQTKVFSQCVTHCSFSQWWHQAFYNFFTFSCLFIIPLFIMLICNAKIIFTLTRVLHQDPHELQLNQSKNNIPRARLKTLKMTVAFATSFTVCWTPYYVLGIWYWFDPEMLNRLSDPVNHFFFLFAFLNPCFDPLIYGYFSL
How it was run: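 After filtration and PBS washes, bound radioactivity was counted by scintillation and IC50 derived. Identical conditions applied for non-human receptors.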

mouse GnRH receptor = target: T3, mouse GnRH receptor (Mus musculus, UniProt Q01776); test: Radioligand binding, 125I-GnRH-A, 293 cells expressing mouse GnRH receptors; conditions: for inhibition at 10 µM: read-out: % Inhib. @ 10 uM mGnRH; for remaining activity at 10 µM: 1 h, substrate remaining, 10 uM compound, closer to zero = closer to 100% inhibition, read-out: S%R 10 uM mGnRHR
T3 construct: expressed in transfected cells; host or cells: 293 cells
T3 sequence (Q01776 1-327): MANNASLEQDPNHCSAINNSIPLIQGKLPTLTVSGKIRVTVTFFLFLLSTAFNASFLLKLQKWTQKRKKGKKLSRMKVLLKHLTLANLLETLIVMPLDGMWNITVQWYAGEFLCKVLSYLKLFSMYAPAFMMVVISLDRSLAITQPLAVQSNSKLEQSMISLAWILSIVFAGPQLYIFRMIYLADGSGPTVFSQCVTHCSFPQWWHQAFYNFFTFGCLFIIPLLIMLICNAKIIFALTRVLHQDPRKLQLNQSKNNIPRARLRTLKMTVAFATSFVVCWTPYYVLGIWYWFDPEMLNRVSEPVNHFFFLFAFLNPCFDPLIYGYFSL
How it was run: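 Bound label captured on 0.1% polyethyleneimine-treated GF/C filters, washed three times with PBS, counted. IC50 derived; identical set-up for every species.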

[1] = Pharmacokinetic studies / bioavailability in rats; format: in vivo, rat; conditions: rat female
[2] = female, rat, plasma, po, 10 mg/kg, p.o. 10 mg/kg, 5 mg/ml solution in 10% DMSO 10% cremophor 80% saline

SMILES: Cc1cc2c(cc1Cc1ccc(C(=O)NC[C@H]3CC[C@H](c4nc5ccccc5[nH]4)CC3)o1)C(C)(C)CCC2(C)C [Compound 85]
- IC50 (rat GnRH receptor): > 10 µM

SMILES: Cc1cc2c(cc1Cc1ccc(C(=O)N3CCC(Nc4ccnc(NCC5CCCO5)n4)C3)o1)C(C)(C)CCC2(C)C (centres unmarked) [Compound 94.5]
- IC50 (rat GnRH receptor): 4.83 µM

SMILES: Cc1cc2c(cc1Cc1ccc(C(=O)Nc3ccc(S(=O)(=O)Nc4ccc(Cl)nn4)cc3)o1)C(C)(C)CCC2(C)C [Compound 107]
- IC50 (human GnRH receptor): > 10 µM
- IC50 (rat GnRH receptor): > 10 µM

SMILES: Cc1cc2c(cc1Cc1ccc(C(=O)N3CCC(Nc4nccc(NCC5CCCO5)n4)CC3)o1)C(C)(C)CCC2(C)C (centres unmarked) [Compound 94.2]
- IC50 (human GnRH receptor): 3 µM
- IC50 (rat GnRH receptor): 1.58 µM

SMILES: COc1ccc(CNC(=O)c2ccc(Cc3cc4c(cc3C)C(C)(C)CCC4(C)C)o2)c2ccccc12 [Compound 129]
- IC50 (rat GnRH receptor): 1.39 µM

SMILES: Cc1cc2c(cc1Cc1ccc(C(=O)NCc3ccc(CN)cc3)o1)C(C)(C)CCC2(C)C [Compound 113]
- IC50 (human GnRH receptor): 0.34 µM
- IC50 (rat GnRH receptor): 0.3 µM

SMILES: Cc1cc2c(cc1Cc1ccc(C(=O)NCC3CCN(C(=O)OC(C)(C)C)CC3)o1)C(C)(C)CCC2(C)C [Compound 87]
- IC50 (human GnRH receptor): 0.27 µM
- IC50 (rat GnRH receptor): 3.31 µM

SMILES: Cc1cc2c(cc1Cc1ccc(C(=O)NCC3CCN(c4ccnc(Cl)n4)CC3)o1)C(C)(C)CCC2(C)C [Compound 103]
- IC50 (human GnRH receptor): 0.36 µM
- IC50 (rat GnRH receptor): 3.46 µM

SMILES: Cc1cc2c(cc1Cc1ccc(C(=O)NC3CCC(N)CC3)o1)C(C)(C)CCC2(C)C (centres unmarked) [Compound 112]
- IC50 (rat GnRH receptor): 7.78 µM

SMILES: Cc1cc(NS(=O)(=O)c2ccc(NC(=O)c3ccc(Cc4cc5c(cc4C)C(C)(C)CCC5(C)C)o3)cc2)no1 [Compound 114]
- IC50 (rat GnRH receptor): 7 µM

SMILES: Cc1cc2c(cc1Cc1ccc(C(=O)NCc3ccccc3-c3ccccc3)o1)C(C)(C)CCC2(C)C [Compound 67]
- IC50 (rat GnRH receptor): 1.16 µM

SMILES: Cc1cnc(CNC(=O)c2ccc(Cc3c(C)cc(C)c(Br)c3C)o2)cn1 [Compound 80]
- IC50 (rat GnRH receptor): 5.61 µM

SMILES: Cc1cc2c(cc1Cc1ccc(C(=O)NC[C@@H](O)c3ccccc3)o1)C(C)(C)CCC2(C)C [Compound 124]
- IC50 (rat GnRH receptor): 0.75 µM

SMILES: COc1cc(OC)c(NC(=O)c2ccc(Cc3cc4c(cc3C)C(C)(C)CC4(C)C)o2)c(OC)c1 [Compound 300]
- IC50 (human GnRH receptor): 0.0032 µM
- IC50 (mouse GnRH receptor; read-out: mGnRH IC50): 0.0031 µM
- Cmax [1, 2]: 360 nM
- Tmax [1, 2]: 1 h
- half-life ([1]; female, rat, plasma): 2.1 h
- Fp.o. ([1]; 5 mg/ml solution in 10% DMSO 10% cremophor 80% saline): 10% (10 mg/kg)^10

SMILES: Cc1cc(C)c(Cc2ccc(C(=O)NCc3cnc(C)cn3)o2)c(C)c1 [Compound 81]
- IC50 (rat GnRH receptor): 8.08 µM

SMILES: Cc1cc2c(cc1Cc1ccc(C(=O)N3CCC(CNC(=O)C(F)(F)F)CC3)o1)C(C)(C)CCC2(C)C [drawing 1308]
- inhibition at 10 µM (mouse GnRH receptor): 41%

SMILES: CCCOCCNC(=O)c1ccc(Cc2cc3c(cc2C)C(C)(C)CCC3(C)C)o1 [drawing 1590]
- inhibition at 10 µM (mouse GnRH receptor): 103%

SMILES: COCC(C)NC(=O)c1ccc(Cc2cc3c(cc2C)C(C)(C)CCC3(C)C)o1 (centres unmarked) [Compound 557]
- remaining activity at 10 µM (mouse GnRH receptor): 10%

SMILES: Cc1cc2c(cc1Cc1ccc(C(=O)NCC(C)(C)CO)o1)C(C)(C)CCC2(C)C [drawing 1438]
- inhibition at 10 µM (mouse GnRH receptor): 84%

SMILES: Cc1cc2c(cc1Cc1ccc(C(=O)NCCCN3CCCCC3)o1)C(C)(C)CCC2(C)C [Compound 505]
- remaining activity at 10 µM (mouse GnRH receptor): 7%

SMILES: Cc1ccc(N2CCN(C(=O)c3ccc(Cc4cc5c(cc4C)C(C)(C)CCC5(C)C)o3)CC2)c(C)c1 [Compound 565]
- remaining activity at 10 µM (mouse GnRH receptor): 48%

SMILES: Cc1cc2c(cc1Cc1ccc(C(=O)NCC(C)O)o1)C(C)(C)CCC2(C)C (centres unmarked) [drawing 1443]
- inhibition at 10 µM (mouse GnRH receptor): 90%
